Results taken from ChEMBL document CHEMBL3507680, “University of Dundee, Gates Library screen for HepG2 cell viability”.

Test: Human HepG2 cell viability assay in 384 well format
Format: toxicity, cell-based
Parameters: dose 125 nL, time 70.5 hour; concentration not given beside the values
Settings: HepG2 cells, read-out: Inhibition

| SMILES | cytotoxicity at 70.5 h |
| --- | --- |
| CCS(=O)(=O)c1ncc(CN(C)Cc2ccccc2Cl)n1CCOC | -2.37% |
| O=C(c1cccnc1)N1CCN(CC2CC2)c2ncccc2C1 | 0.755% |
| c1cc(COc2ccc(CNC3CCc4ncnn4C3)cc2)ccn1 (stereo not drawn) | -2.99% |
| CCc1nc(CNC(=O)Nc2ccc(C(=O)NC)cc2C)cs1 | -22.3% |
| Cc1cc(CN2CCc3c(CNc4ncccn4)cncc3C2)oc1C | -0.479% |
| COc1cccc(CNCc2nnc3n2CC(C(F)(F)F)CC3)c1 (stereo not drawn) | 6.13% |
| CCOCC1CN(C(=O)c2cccc(C)n2)Cc2cnn(C)c21 (stereo not drawn) | -11.5% |
| Cc1cc(C)n(CC2CCCN2C(=O)c2c[nH]c(=O)c(Cl)c2)n1 (stereo not drawn) | -11.8% |
| CC(C)(C)C1CC(=O)Nc2c1cnn2Cc1ccco1 (stereo not drawn) | -17.9% |
| CC(C#N)CSc1ccccc1NCC(=O)Nc1ccc(F)cc1 (stereo not drawn) | 2.62% |
| N[C@H]1CN(C(=O)CCc2ccccn2)C[C@@H]1c1ccccc1 | 4.91% |
| CCc1nccn1C1CCCN(C(=O)c2cn3c(C)cccc3n2)C1 (stereo not drawn) | -3.89% |
| CCCC(=O)Nc1ccc(CC(=O)N(CC)CC2CCCCO2)cc1 (stereo not drawn) | 8.7% |
| Cn1nc2c(cc1=O)CN(Cc1nc(-c3cccnc3)no1)CC2 | -3.78% |
| Cc1cnccc1CN(C)C(=O)c1cccc(CCC(C)(C)O)c1 | -1.91% |
| CC(C)(O)CCc1cccc(C(=O)NCC2CN(S(C)(=O)=O)CCO2)c1 (stereo not drawn) | 10.1% |
| CC(Oc1ccc2c(c1)OCO2)C(=O)N1CCC(N2CCOCC2)CC1 (stereo not drawn) | -2.72% |
| O=S(=O)(NCCc1nnc2ccccn12)c1cccnc1 | 14.7% |
| CN(C)CC(Nc1nc(N)nc2c1CCNCC2)c1ccccc1 (stereo not drawn) | -18.8% |
| O=C(c1cccc(Cl)c1)N1CC[C@@H](N2CCC(O)CC2)[C@H](O)C1 | 16% |
| O=C(NC[C@H]1OC[C@@H](NCc2ccccn2)[C@@H]1O)c1ccncc1 | -1.84% |
| CC(C)OC[C@H]1CCC[C@]12CN(C(=O)C1CCOCC1)CCO2 | -8.49% |
| CCCNS(=O)(=O)c1cnccc1N1CCN(C(C)C)CC1 | 7.02% |

| SMILES | cytotoxicity at 70.5 h |
| --- | --- |
| CCN(CC)c1ccc2ccc(C(=O)O)cn12 | -5.88% |
| Cc1cc(Cn2cc(C(C)Cc3ccc4c(c3)OCO4)nn2)n[nH]1 (stereo not drawn) | -7.62% |
| Fc1cnc(N2CC3(CCN(Cc4ccsc4)C3)C2)nc1 | -6.5% |
| CC1CCN(CCNC(=O)c2cncnc2C(C)C)CC1 | -5.55% |
| CC(=O)N1CCC(c2nn(C)c3nccnc23)C1 (stereo not drawn) | -5.3% |
| NC(=O)c1cncc(N2CCN(Cc3cccc4nsnc34)CC2)n1 | -5.47% |
| O=C(CCc1ccco1)N1CCCC(n2cccn2)C1 (stereo not drawn) | -0.72% |
| O=C(c1cccc2c1OCO2)N1CCCC(n2cccn2)C1 (stereo not drawn) | -9.01% |
| CCN(CC)C(CNC(=O)c1ccc(S(C)(=O)=O)cc1)c1ccco1 (stereo not drawn) | -0.309% |
| Cc1cc(S(=O)(=O)N2CCOCC2C#N)ccc1F (stereo not drawn) | 13.3% |
| CCCNC(=O)C(C)NC(=O)Nc1ccccc1SC(F)F (stereo not drawn) | -13% |
| O=C(NC1CCC1)C1CCC2(CN(C(=O)c3ccco3)C2)O1 (stereo not drawn) | -13.3% |
| CCCn1cnc2c(cnn2-c2cccc(C)c2C)c1=O | 37.7% |
| N#CCCN(Cc1cccnc1)C(=O)c1ccc(-n2cnnn2)cc1 | -12.1% |
| OC1CCN(C2CCN(Cc3cccc(Cn4cccn4)c3)CC2)CC1 | 5.45% |
| COc1ccc(NC(=O)N2CCN(CCSc3ccccc3)CC2)cc1 | 3.81% |
| Cn1ccc2c(C(=O)N3CCC(C(N)=O)CC3)cccc21 | -2.97% |
| CNC(=O)C1CCCN(C(=O)OC)C1 (stereo not drawn) | -5.12% |
| Cc1noc2ncnc(N3CCC(O)(Cn4ccnc4)CC3)c12 | 4.45% |
| Cc1cnc2n(c1=O)CC(C(=O)NC1CC1)CS2 (stereo not drawn) | 2.18% |
| O=C(CCN1CCOC1=O)N(Cc1ccncc1)CC1CCCO1 (stereo not drawn) | 4.43% |
| Cc1ccc(C(=O)NS(=O)(=O)c2cc(Br)ccc2C)c(=O)[nH]1 | -7.4% |
| COC(=O)c1cccn1C1CCN(C(=O)c2c(C)noc2C)CC1 | 3.97% |

| SMILES | cytotoxicity at 70.5 h |
| --- | --- |
| Cn1cc(N2CC3(COCCN(Cc4ccsc4)C3)OCC2=O)cn1 (stereo not drawn) | 22.6% |
| COCCNC(C)c1ccc(-c2cccnc2)cc1 (stereo not drawn) | 0.821% |
| Cn1cc(-c2nc(CN3CCN(CCO)CC3)cs2)cn1 | 12.2% |
| CN1[C@@H](C(=O)NCC2CC2)C[C@@H]2CN(Cc3ccoc3)C[C@@H]21 | 13.7% |
| CN1CCN(CC2CC2)C(=O)C12CCN(C(=O)CC(F)(F)F)CC2 | -4.4% |
| NC1CCN(c2nccn3c(=O)[nH]nc23)CC1 | 22.8% |
| Cc1cc(C(=O)NCC2OCCc3cn(CC4CC4)nc32)c(C)[nH]1 (stereo not drawn) | -3.07% |
| Fc1ccc(CN2CCC3(CCCN(c4nncs4)C3)C2)cc1 (stereo not drawn) | -2.74% |
| O=C1[C@H]2CN(c3ncc(F)cn3)C[C@H]2CN1CC1CC1 | 5.29% |
| COc1ccc2c(c1)C1(CCNCC1)CC2NC1CC1 (stereo not drawn) | 27.2% |
| CN(C)CCN1CCN(CC2CC2)c2ncccc2C1 | -3.26% |
| Cn1nc2c(cc1=O)CN(Cc1coc(-c3cccc(F)c3)n1)CC2 | -2.83% |
| CN1CC(=O)N(c2cccc(F)c2)CC12CCN(Cc1ccccn1)C2 (stereo not drawn) | -1.03% |
| CC(C)Cc1noc(CN(C)C(=O)C2COc3ccccc3C2)n1 (stereo not drawn) | -14.4% |
| O=C(CCc1ccc(Cl)cc1)N1CCC(O)(C(F)(F)F)C1 (stereo not drawn) | -6.2% |
| O=C(NC[C@H]1CCCO1)c1ccc(S(=O)(=O)N2C[C@@H]3C[C@H]2CN3)cc1 | -1.62% |
| CC(C)c1cc(=O)[nH]c(-n2nc(C3CC3)cc2N)n1 | 58.1% |
| OC1(CN2CCCC2)CCCN(Cc2ccc(F)cc2Cl)C1 (stereo not drawn) | -7.3% |
| Cc1ccnc(C2CCN(C(=O)CCn3ncc4ccccc43)C2)n1 (stereo not drawn) | -8.45% |
| O=C(c1ccoc1)N1CCCn2cnc(COCC3CC3)c2C1 | -10.8% |
| Cc1nn(C)c(C)c1C(=O)N1CCN(C(=O)CC2CCCCC2)CC1 | 11.5% |
| CCN1CCOCC2(CCCN(c3nncs3)C2)C1 (stereo not drawn) | -2.2% |
| O=C(Nc1ccccc1F)C1CN(C(=O)c2ccc3c(c2)OCO3)C1 | -11.5% |

| SMILES | cytotoxicity at 70.5 h |
| --- | --- |
| C=Cc1ccc(C(=O)N2CCCC(Nc3ccc(OC)cc3)C2)cc1 (stereo not drawn) | -7.62% |
| O=C(NC1(C(=O)NCC2CC2)CCCC1)C1Cc2cc(F)ccc2O1 (stereo not drawn) | -4.27% |
| COCCNS(=O)(=O)c1cccc2c1CN(C(=O)c1ccccc1)CC2 | 14.6% |
| O=C(CCn1ccnc1)N1CCCC(n2cncn2)C1 (stereo not drawn) | 10.1% |
| O=C(Nc1ccc(-n2cccn2)cc1)N1CCC(O)C1 (stereo not drawn) | 28.4% |
| CC(C)(C)OC(=O)N1CCn2c(nnc2C2CCCNC2)C1 (stereo not drawn) | 6.76% |
| COc1c(Cl)cc(Cl)cc1CN1CCC(C(N)=O)C1 (stereo not drawn) | 8.49% |
| CC(C)=CCCC1(C)CCC(=O)N(CCNc2nc(C)cc(=O)[nH]2)C1 (stereo not drawn) | -10.3% |
| CC(=O)N1CCCN(C(=O)NC(C)Cn2cccn2)CC1 (stereo not drawn) | -3.94% |
| CCn1cc(CNC2CCN(c3cccc(C)c3C)CC2)cn1 | -6.01% |
| COCCN1CCOCC2(C1)CN(C(=O)c1conc1C)CCO2 (stereo not drawn) | -1.78% |
| NC(=O)C1CCN(CCCc2ccc(C(F)(F)F)cc2)CC1 | 3.34% |
| N#Cc1ccc(CN2C[C@@H]3OCC(=O)N[C@@H]3C2)cc1 | -5.15% |
| CN(CCC(=O)N1CCc2sccc2C1)Cc1cc(Br)cs1 | -4.84% |
| Cn1ccc(CN2CCC(CCc3ccc(O)cc3)CC2)cc1=O | -9.59% |
| FC(F)(F)c1cccc(-c2c[nH]c(C3CCCN3)n2)c1 (stereo not drawn) | 1.03% |
| Cc1cc(NC(=O)NCCc2ccc3c(c2)OCCO3)n(C)n1 | -4.79% |
| Cn1ccnc1-c1nccn1C[C@@H]1CCCN2CCCC[C@H]12 | 2.02% |
| NCC(=O)N1CCCC1c1n[nH]cc1-c1ccccc1F (stereo not drawn) | 25.4% |
| CCc1nc(NC2CCCN(C(=O)C3CC3)C2)c2cnn(C)c2n1 (stereo not drawn) | -15.4% |
| N#CC1(C(=O)N2CCN(Cc3ccon3)CC2)CCC1 | -20% |
| O=C(CCc1ccc(F)cc1)NCc1ccnc(NC2CC2)c1 | -2.2% |
| O=C1CO[C@@H]2CN(Cc3nccs3)C[C@H]2N1Cc1ccncc1 | -11.4% |

| SMILES | cytotoxicity at 70.5 h |
| --- | --- |
| CC(C)(C)OC(=O)N1CCCc2ccc(NCc3ccon3)cc21 | -4.98% |
| O=C(c1cnc(-c2ncccn2)s1)N1CCCC(n2cccn2)C1 (stereo not drawn) | -10.1% |
| CS(=O)(=O)N1CC(c2ccnc(Nc3ccccn3)n2)C1 | -3.95% |
| CN(C)C(=O)c1c[nH]nc1C1CCN(S(=O)(=O)c2ccccc2)CC1 | -1.91% |
| Cc1ccsc1C(=O)N1CCc2ncnc(NC(C)C)c2CC1 | -7.7% |
| Cc1noc(C2CCN(C(=O)c3ccc(NC4CC4)nc3)CC2)n1 | -10.2% |
| CNC(=O)c1[nH]nc2ccc(I)cc12 | -3.31% |
| COc1ccc(N2CCN(C(=O)Cn3nccc3C)CC2(C)C)cc1 | -0.615% |
| Cc1cccc(C(=O)N2C[C@@H]3CCN(c4cccnc4)C[C@@H]3C2)c1 | 31.2% |
| Cc1ccc(-c2nc(C(=O)N(C)CC(=O)N(C)C)cs2)c(C)c1 | 20.9% |
| Cc1ccc(N2CC[C@@H]3O[C@@H](c4ccncn4)C[C@H]3C2)nn1 | -3.76% |
| CC1COCCN1C(=O)c1cccc(OCc2cscn2)c1 (stereo not drawn) | -8.23% |
| Cn1c2c(ccc1=O)CC(Nc1ncc(F)cn1)CC2 (stereo not drawn) | -11.5% |
| N#CCCN(CCC#N)C(=O)COC1CCCCC1 | -6.88% |
| O=C(Nc1ccccn1)c1cncc(C2CCNCC2)n1 | -6.06% |
| CC(C)NC(=O)N1CC[C@@H]2CN(Cc3ccccc3)S(=O)(=O)[C@@H]2CC1 | 18.6% |
| COCCN(C)C[C@@H]1CN(C(=O)c2ccc(SC)cc2)C[C@@H]1CO | 12.6% |
| CN(C)C(=O)[C@H]1C[C@H]2OCC[C@H]2N(Cc2ccc(F)cc2)C1 | -7.16% |
| CC1CN(C(=O)c2cscn2)c2ccccc2S1 (stereo not drawn) | 21% |
| Cc1nccc(CN2CC[C@@]3(CCCN3Cc3ccccc3)[C@@H](O)C2)n1 | 1.99% |
| Cc1cc(C(=O)NCc2ccc(F)cc2)c2c(C3CCNC3)noc2n1 (stereo not drawn) | -7.85% |
